This is an account of results in article PMC12869243, “Urate-lowering effect of delphinidin-3-glucoside in red kidney beans via binding to the FAD site of the XO enzyme” (Journal of Advanced Research, 2025).

For assay [1], the target named is T1, xanthine oxidase (XO) (Bos taurus, UniProt P80457).
T1 construct: gene XDH

In assay [2] the target is T1, xanthine oxidase (XO). The assay is described as follows: SPR (Biacore T200, CM5 chip, immobilised XO, steady-state analysis); also lowers uric acid production by purified XO (UHPLC-MS). It is filed as binding.

T1 sequence (P80457 2-1332): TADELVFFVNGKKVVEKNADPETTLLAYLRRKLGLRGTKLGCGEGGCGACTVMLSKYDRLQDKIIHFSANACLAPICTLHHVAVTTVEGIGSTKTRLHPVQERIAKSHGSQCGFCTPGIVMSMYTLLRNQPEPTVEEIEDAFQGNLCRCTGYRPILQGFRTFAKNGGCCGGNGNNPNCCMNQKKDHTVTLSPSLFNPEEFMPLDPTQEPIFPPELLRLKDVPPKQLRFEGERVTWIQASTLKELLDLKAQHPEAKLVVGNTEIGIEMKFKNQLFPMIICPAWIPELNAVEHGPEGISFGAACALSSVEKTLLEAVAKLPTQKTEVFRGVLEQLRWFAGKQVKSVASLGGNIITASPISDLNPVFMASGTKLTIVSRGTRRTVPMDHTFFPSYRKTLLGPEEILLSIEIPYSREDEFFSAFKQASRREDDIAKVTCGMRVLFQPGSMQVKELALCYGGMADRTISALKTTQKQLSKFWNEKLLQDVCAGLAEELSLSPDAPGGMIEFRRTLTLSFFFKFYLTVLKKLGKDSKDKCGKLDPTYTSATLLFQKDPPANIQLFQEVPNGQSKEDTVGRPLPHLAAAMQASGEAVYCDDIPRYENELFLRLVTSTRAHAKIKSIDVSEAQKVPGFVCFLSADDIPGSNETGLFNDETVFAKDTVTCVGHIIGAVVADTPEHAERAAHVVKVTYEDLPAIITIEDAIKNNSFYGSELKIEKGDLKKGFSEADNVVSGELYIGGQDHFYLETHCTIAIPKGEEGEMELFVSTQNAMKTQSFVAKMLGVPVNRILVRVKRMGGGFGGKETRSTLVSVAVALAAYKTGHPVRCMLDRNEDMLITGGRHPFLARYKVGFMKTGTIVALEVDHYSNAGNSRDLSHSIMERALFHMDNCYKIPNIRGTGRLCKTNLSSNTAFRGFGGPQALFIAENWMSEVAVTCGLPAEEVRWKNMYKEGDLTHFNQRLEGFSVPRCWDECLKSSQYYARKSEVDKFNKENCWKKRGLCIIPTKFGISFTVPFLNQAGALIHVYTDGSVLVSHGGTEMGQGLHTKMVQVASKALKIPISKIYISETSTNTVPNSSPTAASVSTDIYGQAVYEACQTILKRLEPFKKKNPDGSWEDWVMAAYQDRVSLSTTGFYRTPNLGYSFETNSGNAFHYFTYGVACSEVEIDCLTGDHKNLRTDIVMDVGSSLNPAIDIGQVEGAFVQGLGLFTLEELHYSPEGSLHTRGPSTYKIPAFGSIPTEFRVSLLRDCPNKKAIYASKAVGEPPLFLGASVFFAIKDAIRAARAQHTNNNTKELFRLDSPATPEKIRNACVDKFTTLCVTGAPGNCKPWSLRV

With `Oc1ncnc2[nH]ncc12` [AP, allopurinol], the “XO reaction-UHPLC/MS assay of uric acid production from xanthine, AP at 100 μM a” value in assay [1] is “We observed a significant reduction in uric acid levels in the AP treated group, a potent purine-like XOI”.

Compound `OC[C@H]1O[C@@H](Oc2cc3c(O)cc(O)cc3[o+]c2-c2cc(O)c(O)c(O)c2)[C@H](O)[C@@H](O)[C@@H]1O` [Dp-3G, delphinidin-3-glucoside] came in with a Kd in assay [2] of 250 nM.
